Measured values as given in PubChem BioAssay AID179 (DTP/NCI, 2004).
The source made the active and inactive calls.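 Rule for the calls: active = compounds giving half or more protection of infected cells from virus-caused growth loss, again on retest; inactive = the rest.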 Where a SMILES comes first, the peptide text is derived from it. [ ]: non-standard residue; d: D form. The star is where a group is joined. pGlu = O=C1CC[CH](C(=O)O)N1; Boc = CC(C)(C)OC(=O)*; OBn = c1ccc(CO*)cc1; Bn = c1ccc(C*)cc1

System: CEM cells HIV-1 protection, formazan growth assay
Assay: NCI AIDS Antiviral Assay
Details: for IC50: measured here: growth of uninfected CEM cells
Summary of the method: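 Soluble formazan readout of cell growth; CEM cells ± HIV-1; 5 drug concs. ≥50% protection → retest; ≥50% again = moderately active; reproducible 100% = confirmed active.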

Row | SMILES | EC50 [µM] | IC50 [µM] | outcome
1 | COc1ccc2c(c1)-c1c(c3cc(OC)ccc3n1CCCN(C)C)CC2 | > 200 | 5.5 | 
2 | Cc1cc(N(CCC#N)CCC#N)ccc1/C(N=Nc1cccc(Cl)c1)=N/NC(=O)c1cc(Cl)ccc1O | > 200 | 11.7 | 
3 | CC1(C)COC(c2ccc(C(F)(F)F)cc2C(O)c2ccc3ccccc3c2)=N1 (stereo not given) |  |  | inactive
4 | CCCCC(CC)CN(Cc1cc(CN(CC(CC)CCCC)CC(CC)CCCC)c(O)c(CN(CC(CC)CCCC)CC(CC)CCCC)c1)CC(CC)CCCC (stereo not given) | > 200 | 34.7 | 
5 | CCCNC(=O)Sc1ccccc1C(=O)N[C@H](C)C(N)=O | > 4.68 |  | 
6 | Cc1cc(C)c2c(c1)CC2N (stereo not given) | > 1350 | 490 | 
7 | COc1ccc2occ(CCC(=O)O)c2c1 |  |  | inactive
8 | CN1N=C(c2ccncc2)OC1c1cccc(C(F)(F)F)c1 (stereo not given) | > 200 | 44.7 | 
9 | O=C(CCCl)NNC1=NCCN1 | > 200 | > 200 | 
10 | O=C1CCC2c3[nH]c4ccccc4c3CCN12 (stereo not given) | > 200 | 186 | 
11 | CC(=O)N(/N=C1\CC(c2ccccc2)Oc2ccccc21)C(C)=O (stereo not given) | > 200 | 102 | 
12 | NC(Cc1ccc(B(O)O)cc1)C(=O)NC(CO)CO (stereo not given) | > 200 | > 200 | 
13 | O=C1C=CC(=O)c2nc3c(nc21)[nH]c1ccccc13 | > 26.3 | 13.2 | 
14 | CC[C@@]1(OC(=O)CCC(=O)O)C(=O)OCc2c1cc1n(c2=O)Cc2cc3ccccc3nc2-1 | > 10 | 0.00708 | 
15 | Cc1cc(=O)c(C#N)c(C)s1 | > 200 | > 200 | 
16 | O=P1(Nc2ccccc2)OCCCN1Cc1ccc(Cl)c(Cl)c1 (stereo not given) | > 200 | 53.7 | 
17 | CCOC(=O)C(=Cc1ccccc1F)C(=O)OCC | > 135 | 25.7 | 
18 | CC1NC(C)SC(C)S1 (stereo not given) | > 200 | > 200 | 
19 | CC(C)/C(Cl)=N\OC(=O)Nc1ccc(F)c([N+](=O)[O-])c1 | > 200 | 3.02 | 
20 | COC(=O)C(CC(=O)Nc1ccc(C)cc1)C(=O)C(=O)Nc1ccccc1C(C)C (stereo not given) | > 229 | > 229 | 
21 | N#Cc1cccc(C=NC23CC4CC(CC(C4)C2)C3)c1 | > 97.7 | 74.1 | 

Row | SMILES | EC50 [µM] | IC50 [µM] | outcome
22 | CCc1ccccc1NC(=O)C(=O)CC(=O)c1sc(Nc2ccccc2)nc1C | > 89.1 | 53.7 | 
23 | COc1ccc2c3c([nH]c2c1[N+](=O)[O-])C(C)N(C)CC3 (stereo not given) |  |  | inactive
24 | Cc1cccc2c(=O)c([Se]c3coc4c(C)cccc4c3=O)coc12 | > 33.1 | > 33.1 | 
25 | CC1(C)O[C@]2(C)CC[C@@H]1[C@@H](O)[C@@H]2N1CCCC1 | > 417 | > 417 | 
26 | C/C(=N\NC(=S)N1CCC1)c1ccccn1 | > 0.2 | 0.00525 | 
27 | Clc1cccc(-c2sc(-c3cccs3)cc2Cc2cccs2)c1 | > 200 | 141 | 
28 | CCOC(=O)Nc1ccc(/C=C\c2ccnc3ccccc23)cc1 | > 16.2 | 10 | 
29 | CC(C)(CCl)NC(=O)c1cccc(C(=O)NC(C)(C)CCl)n1 | > 28.8 | > 28.8 | 
30 | O=C1c2c(c3c4ccccc4n(COCCO)c3c3[nH]c4ccccc4c23)C(=O)N1Cc1ccccc1 | > 15.8 | 6.92 | 
31 | CC1OC=CC(=O)C1O (stereo not given) |  |  | inactive
32 | O=S(=O)(SS(=O)(=O)c1ccc(Cl)cc1)c1ccc(Cl)cc1 | > 93.3 | > 93.3 | 
33 | CCCCCCCCCCCCCCCCCCN1CN(CO)C(=O)N(CO)C1 | > 200 | 166 | 
34 | CC1(C)OC(=O)c2cc(C(=CCCO)c3cc(Cl)c4c(c3)C(=O)OC(C)(C)O4)cc(Cl)c2O1 | > 200 | 28.8 | 
35 | Cc1cccc2c(N)c3cccc(C(=O)NCCNCCN)c3nc12 | > 0.2 | 0.11 | 
36 | O=C1C2N=NN(c3ccccc3)C2C(=O)N1c1ccccc1 (stereo not given) | 41.7 | > 200 | 
37 | NC(=O)c1cc(N(CCO)CCO)c([N+](=O)[O-])cc1[N+](=O)[O-] | > 200 | > 200 | 
38 | NC(=S)Nc1nnc(-c2ccc(-c3nnc(NC(N)=S)o3)cc2)o1 |  |  | inactive
39 | COc1cc2c(cc1OC)-c1cc3cc(OC)c(OC)cc3n1CC2 | > 4.27 | 2.4 | 
40 | CC(C)CC(N)CO (stereo not given) | > 200 | > 200 | 
41 | C/C(=C(/C)c1ccc(O)cc1)c1ccc(O)cc1 | > 200 | 52.5 | 
42 | COc1ccc2c(c1)Oc1cc(O)ccc1[C@H]2c1ccccc1C(=O)NC(C)c1ccccc1 (stereo not given in full) | > 15.8 | 13.8 | 

Row | SMILES | EC50 [µM] | IC50 [µM] | outcome
43 | COc1ccc2c(c1)C(=O)[C@@](Nc1ccc(C=O)cc1)(OC)[C@@](OC)(c1ccc([N+](=O)[O-])cc1)O2 | > 200 | 85.1 | 
44 | O/N=C\C(=Nc1ccc(Cc2ccc(N=C(/C=N\O)NO)cc2)cc1)NO | > 355 | 39.8 | 
45 | O=C1C=CC(=O)c2c1ccc1c2[nH]c2ccccc21 |  |  | inactive
46 | c1ccc2[nH]c(C3CCCCO3)nc2c1 (stereo not given) | > 200 | > 200 | 
47 | NC1CCC2(O)c3ccccc3C2C1 (stereo not given) | > 200 | > 200 | 
48 | O=C1C(Cl)=C(c2ccc([N+](=O)[O-])cc2)C(=O)c2c(O)cccc21 | > 79.4 | 1.12 | 
49 | COc1ccc(-c2ccccc2)c2[nH]c3c(c12)CCNC3=O |  |  | inactive
50 | CC(C)CC(NC(=O)C(Cc1ccccc1)NC(=O)C(COCc1ccccc1)NC(=O)OC(C)(C)C)C(=O)OCc1ccccc1 (stereo not drawn) (Boc-Ser(Bn)-Phe-Leu-OBn; configuration not given here) | > 200 | 13.2 | 
51 | CCOP(=O)(OCC)C(C(=O)OC)C(=O)C(=O)Nc1cccc([N+](=O)[O-])c1 (stereo not given) | > 617 | > 617 | 
52 | N#Cc1c(N)oc(-c2ccc([N+](=O)[O-])cc2)c1C#N | > 200 | 67.6 | 
53 | COc1cc2c(c3oc(=O)cc(C)c13)[C@@H](OC(=O)C13CCC(C)(C(=O)O1)C3(C)C)[C@@H](OC(=O)C13CCC(C)(C(=O)O1)C3(C)C)C(C)(C)O2 (stereo not given in full) | 0.324 | > 200 | 
54 | CC(=O)N(CN1C(=O)CCC1C(=O)O)c1ccccc1Cl (stereo not given) |  |  | inactive
55 | COc1cc(OC)cc(C2(C#N)CCN(C)CC2)c1 | > 191 | > 191 | 
56 | COc1ccc(-c2sc(/N=C/c3cc(Br)cc(Br)c3O)c(C#N)c2C)cc1OC |  |  | inactive
57 | CC(C)CC(NC(=O)C(CO)NC(=O)C(CCCCN)NC(=O)C(CCCCN)NC(=O)C(NC(=O)CNC(=O)C(NC(=O)C(CO)NC(=O)C(NC(=O)C(NC(=O)C(CO)NC(=O)C(CC(N)=O)NC(=O)C1CCC(=O)N1)C(C)C)C(C)C)C(C)O)C(C)C)C(=O)NC(Cc1ccccc1)C(=O)NC(CCC(N)=O)C(=O)O (stereo not given) ([pGlu]NSVVSTGVKKSLFQ-OH; configuration not given here) | > 30.9 | > 30.9 | 
58 | C=CCC(C(=N)C(C#N)(CC=C)C1=CCCCC1)C1=CCCCC1 (stereo not given) | > 97.7 | 81.3 | 
59 | CCOC(=O)[C@H]1Nc2ccc(OC)cc2C2c3ccccc3CC21 (stereo not given in full) | > 57.5 | > 57.5 | 
60 | O=C1c2ccccc2C(=O)N1Cc1ccccc1-c1c2nc(c(-c3ccccc3CN3C(=O)c4ccccc4C3=O)c3ccc([nH]3)c(-c3ccccc3CN3C(=O)c4ccccc4C3=O)c3nc(c(-c4ccccc4CN4C(=O)c5ccccc5C4=O)c4ccc1[nH]4)C=C3)C=C2 | > 4.17 | > 4.17 | 
61 | O=c1[nH]c(=O)n(C2CC(O)C(CO)O2)cc1C#Cc1ccc(F)cc1 (stereo not given) | > 724 | > 724 | 
62 | O=C1N/C(=N\N=C\c2ccccc2)C2(CCCCC2)O1 | > 200 | 97.7 | 
63 | N#C[C@H](c1ccccn1)c1nc2ccccc2nc1Cl | > 200 | 115 | 

Row | SMILES | EC50 [µM] | IC50 [µM] | outcome
64 | CC(C)N(c1cc2c(cc1F)c(=O)c(C(=O)O)cn2-c1ccc(N2CCN(C)CC2)cn1)C(C)C | > 200 | > 200 | 
65 | COC(=O)/C=C/c1cc2c(cc1-c1c(C(=O)O)cc(OC)c(OC)c1OC)OCO2 | > 603 | > 603 | 
66 | Cc1cc2c(C)n(Cc3ccc(Cl)cc3Cl)nc2c(C#N)c1C | > 20.9 | > 20.9 | 
67 | CC(C)CCCC(C)[C@H]1CC[C@H]2[C@@H]3CC[C@H]4C[C@@H](CCC=C(c5cc(Cl)c(O)c(C(=O)OCc6ccccc6)c5)c5cc(Cl)c(O)c(C(=O)OCc6ccccc6)c5)CC[C@]4(C)[C@H]3CC[C@]12C (stereo not given in full) |  |  | inactive
68 | N#C/C(=C\c1ccc([N+](=O)[O-])cc1)C(=O)c1ccccc1 | > 45.7 | 24.5 | 
69 | O=C(O)c1ccc(CS(=O)c2ccccc2C(=O)O)c([N+](=O)[O-])c1 (stereo not given) | > 708 | > 708 | 
70 | Cc1cc(Cl)cc2c1NC(=O)C2(O)CC(=O)c1ccc(F)cc1 (stereo not given) | > 15.5 | > 15.5 | 
71 | CC1(Br)CC2OC3(Br)C=CC(C)(O)C2(CC1=O)C3(C)C (stereo not given) |  |  | inactive
72 | Cc1cc([N+](=O)[O-])ccc1Sc1c2ccccc2nc2ccccc12 | > 20.9 | > 20.9 | 
73 | COC(=O)Cc1cccc2c(=O)c(S(=O)(=O)NC(=O)Nc3ccc(Cl)cc3)c(-c3ccccc3)oc12 | > 200 | 41.7 | 
74 | CCCC(=O)OC1C(C(O)CO)OC2OC(C)(C)OC21 (stereo not given) | > 871 | > 871 | 
75 | c1ccc(Oc2cccc(Oc3ccc4c(c3)-c3nc-4nc4[nH]c(nc5nc(nc6[nH]c(n3)c3ccc(Oc7cccc(Oc8ccccc8)c7)cc63)-c3cc(Oc6cccc(Oc7ccccc7)c6)ccc3-5)c3ccc(Oc5cccc(Oc6ccccc6)c5)cc43)c2)cc1 | > 3.02 | > 3.02 | 
76 | COc1cc(C(=O)n2c(=O)oc(=O)c3cc([N+](=O)[O-])ccc32)cc(OC)c1OC | > 200 | > 200 | 
77 | O=C(Cn1c(=O)oc2ccc(C(=O)c3ccccc3Cl)cc21)c1ccc([N+](=O)[O-])cc1 | > 200 | 17 | 
78 | Oc1ccc(SCc2cc(O)ccc2O)cc1 | > 200 | 7.08 | 
79 | CN1C(=O)[C@H](c2c[nH]c3ccccc23)[C@H](c2c[nH]c3ccccc23)C1=O | > 129 | 38 | 
80 | CC[C@]1(Cc2ccc(OC)c(OC)c2)C2CC(C(=O)OC)ON2O[C@H](OCc2ccccc2)[C@@H]1OC(C)=O (stereo not given in full) | > 200 | 102 | 
81 | COc1ccc(/C(=N\NC(=O)C(N)=O)C(c2ccc(OC)cc2)C2(O)C(=O)Nc3c(Cl)cccc32)cc1 (stereo not given) | > 18.2 | > 18.2 | 
